Test results taken from patent US20040002457A1, “Inhibition of virus anchorage by RGG domain of a cell surface-expressed protein, polynucleotide coding for said RGG domain, therapeutic uses thereof by inhibition of microorganism or protein ligand binding to the cell-surface-expressed protein” (priority 2002, published 2004).
Where two headings read alike, the source gives them in different places. No end group written: not given here.

Legend:
HIV-1 LAI [1] = test: HIV-1 LAI infection in HeLa P4 cells (LTR-lacZ, β-galactosidase); assay type: cell-based; details: HB-19A 1 μM (FIG. 9)
Description: Assay of HIV infection in HeLa CD4+cells. HIV-1 LAI infection was monitored indirectly in HeLa-CD4-LTR-/ac Z cells (HeLa P4 cells) containing the bacterial lac Z gene under the control of HIV-1 LTR. HIV-1 entry and replication result in the activation of the HIV-1 LTR leading to the expression of p-galactosidase. At 48 h post-infection, cells were lysed and assayed for β-galactosidase activity using the chlorophenol-red-β-D-galactopyranoside as a substrate. The optical density was measured at 570 nm (1). The HIV-1 Ba-L infection was monitored in HeLa-CD4-LTR-/ac Z cells but expressing also CCR5 (HeLa F4-C5 cells) as above (1).
Assay of peptides for their activity. Each peptide is tested at different concentrations to investigate their capacity to inhibit HIV infection. Each peptide is investigated for its binding capacity to the HB-19, using biotin-coupled HB-19.

RGG domain of nucleolin = test: Biotinylated HB-19A binding to GST constructs of nucleolin containing the RGG domain; set-up: species or system human; details: constructs containing the RGG domain (FIG. 8, lanes 1234G, R234G, G)
Chain of RGG domain of nucleolin (P19338 648-710 limits assumed): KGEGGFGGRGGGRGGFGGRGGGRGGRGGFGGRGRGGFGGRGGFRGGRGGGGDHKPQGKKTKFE
Description: Expression and purification of recombinant nucleolin constructs. Escherichia coli (E. coli) BL21 (DE3) cells were transformed with each pGEX-N3 plasmid coding for truncated derivatives of the C-terminal part of human nucleolin. Cells were grown overnight at 37° C. in 100 ml of Terrific Broth containing 100 μg of ampicillin per ml. After 1:50 dilution in 100 ml of fresh medium, cells were grown at 30° C. to a 600 nm optical density of approximately 0.5 (6 h) and induced with 0.5 mM isopropyl-1-thio-D-galactopyranoside (IPTG) for an additional 2 h. Bacteria were pelleted at 4,000 g for 10 min at 4° C., resuspended in 5 ml of PBS containing 0.2 mM phenylmethylsulphonyl flouride (PMSF) and 1 mM DTT, and frozen at −20° C. overnight. […] The presence of proteins in cell extracts was monitored by SDS-Page with Coomassie blue staining, and their respective concentration estimated and adjusted.
To assay HB-19A binding capacity, bacterial extracts were first diluted 5-fold in PBS-EDTA before centrifugation at 12,000 g for 10 min at 4° C. […] The purified proteins were eluted by heating in the electrophoresis sample buffer containing SDS and analyzed by immunoblotting using anti-GST monoclonal antibody B-14 (Santa Cruz Biotechnology, Inc.).

HIV = details: 1 μM HB-19A, different types of cells (refs 1, 10); cited from earlier work
full-length nucleolin = molecular target: T1, full-length nucleolin (Homo sapiens, UniProt P19338); test: Biotinylated HB-19A binding to in vitro translated full-length nucleolin (avidin-agarose); details: amino acids 1 to 707, 0.5 or 1 μM biotinylated HB-19A (FIG. 6)
T1 construct: labeled full length nucleolin, N-terminal and the C-terminal parts containing amino acids 1 to 707; vector-encoded His leader of pcDNA4His/Max C (only the vector name is printed); made in house; host or cells: cell-free: TNT coupled rabbit reticulocyte lysate (Promega), 35S-Met/Cys labelled, used crude
T1 sequence (P19338 whole entry, the tested form may be a part): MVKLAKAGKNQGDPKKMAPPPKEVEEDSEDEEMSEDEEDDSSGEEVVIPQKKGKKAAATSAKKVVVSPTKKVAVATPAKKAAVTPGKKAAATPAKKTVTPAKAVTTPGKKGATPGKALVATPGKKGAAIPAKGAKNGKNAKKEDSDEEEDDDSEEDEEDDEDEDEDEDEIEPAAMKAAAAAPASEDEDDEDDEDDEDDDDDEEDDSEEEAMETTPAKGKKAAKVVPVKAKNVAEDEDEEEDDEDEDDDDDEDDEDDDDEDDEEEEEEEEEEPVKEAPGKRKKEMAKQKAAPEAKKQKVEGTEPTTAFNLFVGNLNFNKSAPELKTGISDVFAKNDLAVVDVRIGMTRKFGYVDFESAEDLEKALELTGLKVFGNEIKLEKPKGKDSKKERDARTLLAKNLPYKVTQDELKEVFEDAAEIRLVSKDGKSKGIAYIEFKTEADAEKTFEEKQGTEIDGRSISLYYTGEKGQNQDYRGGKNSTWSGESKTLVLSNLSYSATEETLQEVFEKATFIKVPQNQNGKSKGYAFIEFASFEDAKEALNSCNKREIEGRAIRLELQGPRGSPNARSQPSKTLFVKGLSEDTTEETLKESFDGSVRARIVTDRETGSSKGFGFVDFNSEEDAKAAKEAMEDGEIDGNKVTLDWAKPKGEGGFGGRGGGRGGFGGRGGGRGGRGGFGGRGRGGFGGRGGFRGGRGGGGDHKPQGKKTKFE
Description: (§1) In vitro transcription and translation of human nucleolin. The TNT coupled reticulocyte lysate system (Promega) was used to produce the wild-type nucleolin (pcDNA4 Nuc) and the N- and C-terminal parts of nucleolin (pcDNA4 NucN and pcDNA4 NucC containing amino acids 1-308 and 309-707) by in vitro transcription/translation. Reactions were performed by using 2 μg of each plasmid and 20 μCi of […].
(§2) To assay the HB-19A binding capacity of the generated nucleolin and nucleolin truncated constructs, 25 μl of translation products were diluted in 25 μl of modified BI buffer (20 mM Tris-HCl, pH 7.6,100 mM NaCl, 50 mM KCl, 2 mM EDTA, 2% Triton X-100,1000 U/ml aprotinin), centrifuged at 12,000 g for 10 min at 4° C. and diluted in 150 μl of PBS. Binding reactions were performed by incubating 200 μl of each diluted lysates with the biotinylated HB-19A for 1 h at 4° C. Complexes formed between nucleolin deletion constructs and biotinylated HB-19A were isolated by purification of the extracts using avidin-agarose (100 μl) in PBS-EDTA (12). After 2 h of incubation at 4° C., the samples were washed extensively with PBS-EDTA. The purified proteins were eluted by heating in the electrophoresis sample buffer containing SDS and analyzed by SDS-PAGE.

CHO K1 cells = test: Biotinylated HB-19A binding to wild type CHO K1 cells; set-up: species or system Chinese hamster; details: wild type CHO K1 cells (FIG. 3B)
Description: (§3) Assay of HB-19A binding to cells. Cells were plated at 10^4 cells/well in 96-well-plates for the ^1251-labeled HB-19A binding or at 10^5 cells/well, in 24-well-plates for the biotinylated HB-19A binding. Twenty four hours later, binding experiments were performed after incubation of the cell monolayers in fresh culture medium for 1 h at room temperature (about 21° C.) in order to cool cells. It should be noted that intracellular entry of HB-19A is inhibited more than 90% at room temperature. Cells were incubated (30 min at room temperature) with different concentrations of the ^125I-labeled HB-19A or the biotinylated HB-19A before washing cells in culture medium containing 10% FCS. For total amount of binding (specific and non-specific), cells were washed 7 times with culture medium. For specific binding measurements, cells were first washed 3 times in culture medium supplemented with 150 mM NaCl thus bringing the final concentration of NaCl to 300 mM followed by 4 washings in culture medium. Washed cells were processed to reveal either the ^125I-labeled HB-19A or the biotinylated HB-19A. For the ^1251-labeled HB-19A binding, cell monolayers were extracted in 1% SDS and the radioactivity was measured in an automatic gamma counter (LKB Wallac Clini Gamma 1272). […] Finally, ortho-phenylenediamine solution was added in the dark and the absorbance was measured at 405 nm.

[2] = molecular target: T2, N-terminal part of nucleolin (Homo sapiens, UniProt P19338); test: Biotinylated HB-19A binding to in vitro translated N-terminal part of nucleolin; details: amino acids 1 to 308, contains the acidic stretches (FIG. 6)
T2 construct: pcDNA4 NucN and pcDNA4 NucC containing amino acids 1-308 and 309-707; vector-encoded His leader of pcDNA4His/Max C (only the vector name is printed); made in house; host or cells: cell-free: TNT coupled rabbit reticulocyte lysate (Promega), 35S-Met/Cys labelled, used crude
T2 sequence (P19338 1-308): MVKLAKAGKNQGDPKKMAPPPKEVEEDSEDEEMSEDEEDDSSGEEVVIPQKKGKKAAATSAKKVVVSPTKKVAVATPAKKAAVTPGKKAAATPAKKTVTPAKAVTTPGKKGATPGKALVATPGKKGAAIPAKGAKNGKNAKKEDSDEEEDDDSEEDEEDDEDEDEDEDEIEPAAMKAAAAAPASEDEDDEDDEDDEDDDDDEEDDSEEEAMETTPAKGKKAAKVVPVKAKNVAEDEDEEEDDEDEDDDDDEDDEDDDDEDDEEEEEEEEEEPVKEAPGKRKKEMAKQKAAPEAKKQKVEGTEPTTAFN
Description: as §1, §2

HeLa P4 cells = test: HB-19A binding to HeLa P4 cells (125I-labeled HB-19A); set-up: species or system human; details: HeLa P4 cells washed at 300 mM NaCl (FIG. 3A)
Description: as §3

CHO 618 cells = test: Biotinylated HB-19A binding to mutant CHO 618 cells; set-up: species or system Chinese hamster; details: CHO 618 devoid of heparan- and chondroitin-sulfate proteoglycans (FIG. 3B)
Description: as §3

[3] = system: C-terminal part of nucleolin; test: Biotinylated HB-19A binding to in vitro translated C-terminal part of nucleolin; set-up: species or system human; details: amino acids 309-707 (FIG. 6)
Chain of C-terminal part of nucleolin (P19338 312-710 limits assumed): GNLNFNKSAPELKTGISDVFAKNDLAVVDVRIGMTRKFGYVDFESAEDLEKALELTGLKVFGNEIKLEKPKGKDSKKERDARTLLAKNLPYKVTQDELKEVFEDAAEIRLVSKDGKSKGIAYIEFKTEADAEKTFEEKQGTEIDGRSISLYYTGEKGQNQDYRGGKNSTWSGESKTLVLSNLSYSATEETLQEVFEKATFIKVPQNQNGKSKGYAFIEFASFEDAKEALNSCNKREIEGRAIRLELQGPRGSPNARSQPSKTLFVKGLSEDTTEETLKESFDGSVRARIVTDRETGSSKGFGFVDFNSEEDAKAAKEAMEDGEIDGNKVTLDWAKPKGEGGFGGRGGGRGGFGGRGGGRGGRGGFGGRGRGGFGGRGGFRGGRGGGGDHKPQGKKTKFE
Description: as §1, §2

HIV particles = details: CD4+ target cells (refs 1, 4, 13, 26); cited from earlier work
HIV-1 LAI [4] = details: cited from earlier work

HB-19A: new generation of HB-19 presenting pentavalently the Kψ(CH2N)PR moiety coupled to a modified TASP template (peptide Lys-Pro-Arg; chain KKKKA; also: Kψ(CH2N)P reduced bond, pentavalent on modified TASP template)
HIV entry at the level of HIV attachment, pretreatment of cells (HIV-1 LAI [1]): inhibition of HIV entry | HB-19A concentration at which binding reaches maximum value (RGG domain of nucleolin): 5 µM | inhibition of HIV infection (HIV): more than 95% | binding to full-length nucleolin (full-length nucleolin): bind | concentration at which binding reaches saturation (CHO K1 cells): 1 µM | binding to N-terminal part of nucleolin [2]: did not bind at all | concentration at which specific binding reaches saturation (HeLa P4 cells): 1 µM | HB-19A binding profile compared with CHO K1 (CHO 618 cells): no significant difference | binding to C-terminal part of nucleolin [3]: bound efficiently | anchorage of HIV particles (HIV particles): inhibited

5[Kψ(CH2N)PR]-TASP [HB-19]
HIV entry at the level of HIV attachment, pretreatment of cells (HIV-1 LAI [4]; HeLa P4 cells (refs 1, 4)): inhibition of HIV entry | resistance to HIV of pretreated cells after removal of the medium containing the inhibitor (HIV-1 LAI [4]; several hours after removal (ref 1)): remain resistant | anchorage of HIV particles (HIV particles): inhibited

RRWCYRKDKPYRKCR [TW70, anti-HIV cyclic peptide specific for CXCR4, reference compound]
anchorage of HIV particles (HIV particles): inhibited

fibroblast growth factor 2: growth factor which binds heparan sulfate proteoglycans
anchorage of HIV particles (HIV particles): inhibited
